# According to patent publication US9816989B2, “Immunologically active polypeptide” (Institute of Arthritis Research, LLC, priority 2013, dated 2017):
# Legend:
# E. coli = E. coli growth (CFUs) incubated with human peripheral blood leukocytes with and without PeptideX2; assay type: cell-based; conditions: E. coli with WBCs and PeptideX2; 10 hours; FIG. 11
# Procedure: To test this hypothesis, human peripheral white cells were incubated with E. coli in the presence and absence of PeptideX2.
# Human peripheral blood leukocytes (WBCs) were obtained from healthy donors with informed consent. Three test groups were inoculated with E. coli and incubated for 10 hours. The three groups were E. coli with serum alone, E. coli with WBCs, and E. coli with WBCs with PeptideX2. Samples were taken at 0, 2, 4, 6 and 10 hours and plated for colony forming units (CFUs). […] In a separate but similar experiment, nine test groups (E. coli with serum alone, E. coli with WBCs, and E. coli with WBCs with PeptideX2 at each of seven indicated concentrations, see FIG. 12) were incubated over a time course of three hours, with quantification of bacterial CFU performed at times 0, 1.5 and 3 hours (FIG. 12).
# peripheral blood cells = test: Cytokine production by human peripheral blood cells in culture (MSD panel); assay type: cell-based
# Procedure: In order to examine the biological activity of IgX, cytokine production from human peripheral whole blood samples incubated with IgX was measured. Peripheral whole blood samples from three different donors (#66, 67, and 85) were obtained with appropriate informed consent and incubated with concentrations of IgX ranging from 0 to 200 ug/ml.
# Protein A purified IgX was prepared from placental sample BC, brought to 0.05 M phosphate, 0.15 M NaCl buffer, pH 7.4, treated with an endotoxin affinity column (ActiClean Etox™ from Sterogene, Carlsbad, Calif.) according to the supplier's instructions, and then sent to IBT Bioservices (Gaithersburg, Md.) for human peripheral blood testing. […] All peripheral blood cells were suspended in RPMI-1640 media. Various concentrations of IgX were incubated with peripheral blood cells from donor D66 for 18 hours, and then the samples were stimulated with 1 ug/ml of PHA, 50 ng/ml of LPS, or 10 ng/ml of IFNγ (200 U/ml) for four hours. Samples of culture supernatant fluids were tested in duplicate for the presence of IL-2, IL-4, IL-6, IL-10, IL-12, and TNFα using a Meso Scale Discovery (MSD, Gaithersburg, Md.) panel.
# PeptideX1 and PeptideX2 were incubated with peripheral blood cells from donor D67 as described above and tested in duplicate for IL-6 activity. […]
# [1] = tested on: macrophage cell line (THP-1); test: Flow cytometry binding to macrophage/monocyte cell line with or without LPS; conditions: presence or absence of LPS
sequence,measurement,setting,value
KSIAYLQMNSLK (Peptide fragment) [PeptideX2],E. coli CFUs,E. coli,rapid rise in CFUs
same,IL-6 production compared to peptideX1,"peripheral blood cells; cells from donor #67, FIG. 7",significantly greater
same,IL-6 production,"peripheral blood cells; cells from donor #85, PeptideX2 0-200 ug/ml, FIG. 9",enhanced production
same,binding to monocyte cell line,[1],without any binding
